# From patent US12337003B2, “Pharmaceutical compositions for combination therapy” (Intercept Pharmaceuticals, Inc., priority 2015, dated 2025)
# Columns and labels:
# [1] = tested on: leukocyte extravasation signaling; test: Hepatic gene expression profiling (RNA sequencing, pathway analysis) in APOE*3Leiden.CETP mice; assay type: in vivo
# Protocol: This experiment was performed to evaluate the effects of OCA and fenofibrate, alone or in combination, on the development of diet induced NASH and liver fibrosis in APOE*3Leiden.CETP transgenic mice. Hepatic gene expression profiling and subsequent pathway analysis were performed to determine whether the combination regulates novel genes not regulated by either monotherapy treatment, and/or more strongly regulates genes also impacted by the monotherapy.
# Mice were fed a high fat chow (HFC) diet for […]. After 15 weeks on the HFC diet, HFC mice were matched into 7 groups based on age, body weight, plasma cholesterol and triglycerides after 4 h fasting. Mice were treated with of OCA and fenofibrate, alone or in combination beginning at week 15 and sacrificed at week 25 in an unfasted state. One week before sacrifice, mice were labeled with D20, by i.p. injection of a bolus of D20 and subsequent addition of 4% D20 to the drinking water. Plasma (EDTA) was obtained by heart puncture and stored at −70° C. The liver was weighed and 4 pieces of liver were isolated: 1 piece (medial lobe) was fixed in 10% formalin (for NASH and fibrosis histology) and 3 pieces (sinister lobe) were snap-frozen in liquid N2 and stored individually at −70° C.
# Nucleic acid extraction was performed as described previously in detail (Verschuren et al., 2014). Briefly, total RNA was extracted from individual liver samples using glass beads and RNAzol (Campro Scientific, Veenendaal, The Netherlands). RNA concentration and quality was determined using the Fragment Analyzer (Advanced Analytical Technologies, USA) and the RNA 6000 Nano Lab-on-a-Chip kit and a Bioanalyzer 2100 (Agilent Technologies, Amstelveen, The Netherlands). All samples met the quality requirements and were used in the RNA sequencing procedure.
# The NEBNext Ultra Directional RNA library Prep Kit for Illumina was used to process the samples. The sample preparation was performed according to the protocol “NEBNext Ultra Directional RNA Library Prep Kit for Illumina” (NEB #E7420S/L). Briefly, mRNA was isolated from total RNA using oligo-dT magnetic beads. After fragmentation of the mRNA, a cDNA synthesis was performed. This was used for ligation of sequencing adapters and PCR amplification of the resulting product. The quality and yield after sample preparation was measured with the Fragment Analyzer (Advanced Analytical Technologies, USA). The size of the resulting products was consistent with the expected size distribution (a broad peak between 300-500 bp).
# Clustering and DNA sequencing using the Illumina […] was performed according manufacturer's protocols. Data was generated using single-end read sequencing protocol obtaining approx. 15 million reads per sample and 75 bp per read. Image analysis, base calling, and quality check was performed with the Illumina data analysis pipeline RTA v2.4.11 to generate the raw data (*.fastq-files).
# The reads were mapped to the reference sequence Mus musculus GRCm38.p3 using a short read aligner based on Burrows-Wheeler Transform. The default mismatch rate of 2% (3 mismatches in a read of 150 bases) was used. Based on the mapped read locations in the alignment files (*.bam-files) the frequency of how often a read was mapped on a transcript was determined. The counts were saved to count-files, which served as input for downstream mRNA-seq differential expression analysis. The read counts were loaded into the DESeq package, a statistical package within the R platform. […]
# [2] = tested on: kidney of a rat model of Type 1 diabetes; details: rat model of Type 1 diabetes (Wang 2010); cited from earlier work
smiles,measurement,setting,value
"CC[C@H]1[C@@H](O)[C@@H]2[C@H](CC[C@]3(C)[C@@H]([C@H](C)CCC(=O)O)CC[C@@H]23)[C@@]2(C)CC[C@@H](O)C[C@@H]12 [OCA, 3α,7α-dihydroxy-6α-ethyl-5β-cholan-24-oic acid]",number of uniquely regulated genes,"[1]; Venn diagram, OCA 10 mg/kg, fenofibrate 10 mg/kg, combination",109
same,enrichment analysis of canonical (inflammatory) pathways,"[1]; liver mRNA, OCA 10 mg/kg and/or low dose fenofibrate vs HFC",regulated several inflammatory processes
same,regulation of genes of leukocyte extravasation signaling (leukocyte and endothelial cells),"[1]; liver mRNA, OCA and/or low dose fenofibrate, relative to vehicle group",downregulates numerous genes
same,inflammatory infiltrates in kidney,[2],inhibition of inflammatory infiltrates
